These are literature values, as cited in patent publication US20060153823A1, “Compositions and methods for nutritional supplementation” (Everett Laboratories, Inc., priority 2005, published 2006).

In data set [1] the test system is patients with hypertension.
Data set [2] concerns patients with congestive heart failure.
Data set [3] concerns patients with ischemic heart disease.
Data set [4] deals with patients with cardiomyopathy.

Regarding `COC1=C(OC)C(=O)C(C/C=C(\C)CC/C=C(\C)CC/C=C(\C)CC/C=C(\C)CC/C=C(\C)CC/C=C(\C)CC/C=C(\C)CC/C=C(\C)CC/C=C(\C)CCC=C(C)C)=C(C)C1=O` [CoQ10, coenzyme Q10], the blood pressure result in data set [1] is “significantly reduce blood pressure”. Also, in data set [2], the blood pressure result was “reduce blood pressure”, the myocardial metabolic function entry was “improve myocardial metabolic function” and the myocardial thickness entry is “reduce myocardial thickness”. Moreover, the “magnitude and rate of clinical improvement” value in data set [3] is “enhances both the magnitude and rate of clinical improvement”. The “cardiac function including ejection fraction and cardiac output” value in data set [4] is “significant improvement in cardiac function”.

Take `Nc1nc2ncc(CNc3ccc(C(=O)N[C@@H](CCC(=O)O)C(=O)O)cc3)nc2c(=O)[nH]1` [folic acid]: the “levels and functioning of nitric oxide (NO)” value with nitric oxide (NO) is “improves the levels and functioning”.
